1 compound from paper PMC8808171, “Nonselective TRPC channel inhibition and suppression of aminoglycoside-induced premature termination codon readthrough by the small molecule AC1903” (The Journal of Biological Chemistry, 2022) can be followed below.

Each structure is given as a SMILES string.

As usually defined, the IC50 is the concentration at which inhibition is half-maximal. As a reminder, the Hill slope is a measure of the steepness of the concentration-response curve.

The target of this experiment is T1, TRPC5:C5 (Homo sapiens, UniProt Q9UL62).
T1 construct: expressed in transfected cells; host or cells: HEK T-REx (tetracycline-induced)
T1 sequence (Q9UL62 1-973): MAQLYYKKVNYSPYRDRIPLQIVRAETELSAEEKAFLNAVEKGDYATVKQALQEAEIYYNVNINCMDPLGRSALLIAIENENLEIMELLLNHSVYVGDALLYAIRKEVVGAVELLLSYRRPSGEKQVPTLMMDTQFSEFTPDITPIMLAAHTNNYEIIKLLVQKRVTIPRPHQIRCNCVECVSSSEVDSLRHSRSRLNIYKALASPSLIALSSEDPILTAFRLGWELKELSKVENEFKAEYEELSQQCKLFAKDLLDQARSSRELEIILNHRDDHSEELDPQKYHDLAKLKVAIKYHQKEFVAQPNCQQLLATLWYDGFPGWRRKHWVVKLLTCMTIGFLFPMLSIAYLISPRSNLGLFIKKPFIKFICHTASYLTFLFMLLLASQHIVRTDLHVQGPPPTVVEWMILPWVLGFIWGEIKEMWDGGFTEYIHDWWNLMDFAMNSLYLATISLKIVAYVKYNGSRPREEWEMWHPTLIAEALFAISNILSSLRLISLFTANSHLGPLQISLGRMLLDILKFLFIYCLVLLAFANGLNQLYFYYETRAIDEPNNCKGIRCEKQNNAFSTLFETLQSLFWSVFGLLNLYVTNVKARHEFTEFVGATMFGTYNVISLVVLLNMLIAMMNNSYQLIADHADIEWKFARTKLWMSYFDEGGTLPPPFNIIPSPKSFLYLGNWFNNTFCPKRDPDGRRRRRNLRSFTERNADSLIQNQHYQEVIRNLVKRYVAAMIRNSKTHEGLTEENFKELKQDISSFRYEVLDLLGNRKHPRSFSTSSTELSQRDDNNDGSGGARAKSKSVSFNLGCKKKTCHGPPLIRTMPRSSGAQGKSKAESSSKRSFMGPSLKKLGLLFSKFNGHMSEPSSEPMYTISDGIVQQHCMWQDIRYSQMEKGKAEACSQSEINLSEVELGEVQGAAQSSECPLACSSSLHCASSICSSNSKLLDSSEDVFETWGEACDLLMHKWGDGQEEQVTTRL
As to the kind of experiment: [Ca2+]i recordings (Fura-2), TRPC5:C5 in HEK T-REx cells. The experiment is classed as cell-based. As to conditions: for IC50: HEK T-REx, 30 min preincubation. How it is done: Based on the findings described above, we wondered whether AC1903—which is typically used as a TRPC5 inhibitor at concentrations of 30–100 μM in cellular assays ([29], [56])—might have limited selectivity for TRPC5 channels and whether its effect on intracellular G418 levels and PTC readthrough might be the consequence of inhibition of other or multiple targets. All well-characterized TRPC channel inhibitors reported to date modulate multiple TRP(C) channels ([34], [35], [36]). […] Because limited data for the selectivity of AC1903 are available in the public domain, we decided to profile AC1903 against a selection of calcium-permeable cation channels by intracellular calcium ([Ca^2+]i) recordings using well-characterized cell lines and TRP channel activators ([46], [57], [58]), and the Ca^2+ indicator Fura-2. In these assays, cells (HEK 293, HEK T-REx, or CHO) overexpressing the relevant ion channel protein and loaded with Fura-2 AM (a cell-permeable precursor of Fura-2) were preincubated with various concentrations of AC1903 or vehicle (DMSO) for 30 min. Then, changes in ratiometric fluorescence (from background) were recorded upon addition of the respective ion channel activator.
Figure 4 AC1903 inhibits multiple TRP channels.A and C, representative [Ca^2+]i measurements from a single 96-well plate (N = 6; mean ± SD over technical replicates) showing inhibition of EA-mediated [Ca^2+]i responses by 0.1 to 100 μM AC1903 in (Tet+) HEK T-REx cells expressing TRPC5 (A) or TRPC4 (C). B and D, concentration–response data for experiments in (A) and (C) (scatter plots showing normalized data for three independent experiments; n/N = 3/18). Responses were calculated at 250 to 295 s compared to [Ca^2+]i at baseline (0–55 s). E and G, representative [Ca^2+]i measurements from a single 96-well plate (N = 6; mean ± SD over technical replicates) showing inhibition of OAG-mediated [Ca^2+]i responses by 0.1 to 100 μM AC1903 in (Tet+) HEK T-REx cells expressing TRPC3 (E) and WT HEK 293 cells transiently expressing TRPC6 (G). F and H, concentration–response data for experiments in (E) and (G) (scatter plots showing normalized data for three independent experiments; n/N = 3/18). Responses were calculated at 90 to 110 s compared with [Ca^2+]i at baseline (0–55 s). I, representative [Ca^2+]i measurements from a single 96-well plate (N = 6; mean ± SD over technical replicates) showing inhibition of the 4α-PDD-mediated [Ca^2+]i response by 0.1 to 100 μM AC1903 in CHO cells stably expressing TRPV4. J, concentration–response data for experiments in (I) (scatter plot showing normalized data for three independent experiments; n/N = 3/18). Responses were calculated at 290 to 300 s compared with [Ca^2+]i baseline (0–55 s). EA, (-)-englerin A; TRPC, transient receptor potential canonical. […]

Consider `c1ccc(Cn2c(NCc3ccco3)nc3ccccc32)cc1` [AC1903], for which, under “activator EA (30 nM)”, the concentration for half-maximal inhibition (IC50) stood at 18 µM and the Hill slope is -1.8. For the same compound, for the setting “activator S1P (10 μM)”, the IC50 was 3.5 µM and the Hill slope is given as -1.6.
